The source of these data is ChEMBL document CHEMBL1143462, “The discovery of fluoropyridine-based inhibitors of the Factor VIIa/TF complex” (Bioorg Med Chem Lett, 2005).

Assay [1] in a line: In vitro inhibitory activity against prolonging prothrombin time as anticoagulant effect on extrinsic coagulation pathway. It counts as functional. Particulars: Homo sapiens.
The next assay concerns the target Coagulation factor X (Homo sapiens, UniProt P00742). Nature of the assay: Inhibitory concentration against human coagulation factor Xa.
For assay [2], the target named is Coagulation factor VII/tissue factor (Homo sapiens, UniProt P08709). Nature of the assay: Inhibitory concentration against human coagulation factor VIIa/tissue factor cleavage of fluorogenic substrate SN17c at 37 degree C for 15 minutes. In kind it is protein-complex assay.
Chain of Coagulation factor VII/tissue factor (P08709 61-212 limits assumed): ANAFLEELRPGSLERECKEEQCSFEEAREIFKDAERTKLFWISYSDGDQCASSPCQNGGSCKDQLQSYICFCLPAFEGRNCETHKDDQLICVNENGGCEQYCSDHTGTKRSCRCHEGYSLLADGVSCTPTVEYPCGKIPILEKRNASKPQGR
Chain of Coagulation factor VII/tissue factor (P08709 213-466 limits assumed): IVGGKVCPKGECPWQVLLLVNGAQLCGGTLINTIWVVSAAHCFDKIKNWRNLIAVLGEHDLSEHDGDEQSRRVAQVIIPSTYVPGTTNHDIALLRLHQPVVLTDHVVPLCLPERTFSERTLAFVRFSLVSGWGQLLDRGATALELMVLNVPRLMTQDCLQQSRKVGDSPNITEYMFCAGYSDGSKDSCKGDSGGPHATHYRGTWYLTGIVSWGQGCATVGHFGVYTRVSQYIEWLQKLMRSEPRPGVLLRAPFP
Chain of Coagulation factor VII/tissue factor (P13726 33-295 partner limits assumed): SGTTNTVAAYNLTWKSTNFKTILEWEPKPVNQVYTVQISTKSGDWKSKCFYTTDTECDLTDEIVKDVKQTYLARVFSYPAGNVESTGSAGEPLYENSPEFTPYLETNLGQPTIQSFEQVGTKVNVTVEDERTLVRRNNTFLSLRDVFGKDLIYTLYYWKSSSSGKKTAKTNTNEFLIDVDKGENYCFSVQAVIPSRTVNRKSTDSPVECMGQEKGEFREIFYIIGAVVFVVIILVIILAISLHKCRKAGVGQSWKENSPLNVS

The IC50 is the point on the concentration scale where inhibition reaches its midpoint.

Chain of Coagulation factor X (P00742 41-179 limits assumed): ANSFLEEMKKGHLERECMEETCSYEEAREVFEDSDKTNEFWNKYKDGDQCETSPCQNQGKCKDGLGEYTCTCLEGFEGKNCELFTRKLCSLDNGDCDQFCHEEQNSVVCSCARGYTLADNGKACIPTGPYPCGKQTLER
Chain of Coagulation factor X (P00742 235-488 limits assumed): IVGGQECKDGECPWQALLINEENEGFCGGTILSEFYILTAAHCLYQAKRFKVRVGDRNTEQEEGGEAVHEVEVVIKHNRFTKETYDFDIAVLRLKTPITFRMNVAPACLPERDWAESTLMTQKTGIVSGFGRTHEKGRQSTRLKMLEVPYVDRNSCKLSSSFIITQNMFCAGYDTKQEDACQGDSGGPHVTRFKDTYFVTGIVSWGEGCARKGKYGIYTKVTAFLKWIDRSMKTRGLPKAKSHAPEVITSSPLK

Compound `CNc1ccc(Oc2nc(Oc3cccc(C(=N)N)c3)c(F)c(NC(C)CCc3ccccc3)c2F)c(C(=O)O)c1` (stereo unspecified) showed a Concentration prolonging prothrombin time in assay [1] of 41 µM. Further, the IC50 was 8000 nM at Coagulation factor X and 17 nM in assay [2].

In the case of `CC(CCc1ccccc1)Nc1c(F)c(Oc2cccc(C(=N)N)c2)nc(Oc2ccc(C(=O)NCc3ccc(O)c(O)c3)cc2C(=O)O)c1F` (stereo unspecified), 140 nM corresponded to half-maximal inhibition in assay [2] (IC50). In other words, the sub-micromolar range.

Compound `COc1cccc(CNC(=O)c2ccc(Oc3nc(Oc4cccc(C(=N)N)c4)c(F)c(NC(C)CCc4ccccc4)c3F)c(C(=O)O)c2)c1` (stereo unspecified) came in with a Concentration prolonging prothrombin time in assay [1] of 53 µM. The IC50 against Coagulation factor X amounted to 9500 nM; in assay [2], 8 nM.

As for `CC(C)CNC(=O)c1ccc(Oc2nc(Oc3cccc(C(=N)N)c3)c(F)c(NC(C)CCc3ccccc3)c2F)c(C(=O)O)c1` (stereo unspecified), the Concentration prolonging prothrombin time in assay [1] turned out to be 22 µM. Further, the IC50 at Coagulation factor X turned out to be 9600 nM; in assay [2] it was 10 nM.

As for `CC(CCc1ccccc1)Nc1c(F)c(Oc2cccc(C(=N)N)c2)nc(Oc2ccc(C(=O)NC(C)(C)CO)cc2C(=O)O)c1F` (stereo unspecified), the Concentration prolonging prothrombin time in assay [1] stood at 11 µM. Moreover, the results for the IC50 (at Coagulation factor X; in assay [2]) were 59000 nM and 16 nM, respectively.

Compound `CC(CCc1ccccc1)Nc1c(F)c(Oc2cccc(C(=N)N)c2)nc(Oc2ccc(-c3ccccc3)cc2C(=O)O)c1F` (stereo unspecified) showed a Concentration prolonging prothrombin time in assay [1] of 112 µM. In addition, the IC50 is 17000 nM on Coagulation factor X and 23 nM in assay [2].

The compound `CCCCN(CCCC)c1ccc(Oc2nc(Oc3cccc(C(=N)N)c3)c(F)c(NC(C)CCc3ccccc3)c2F)c(C(=O)O)c1` (stereo unspecified) returned an IC50 in assay [2] of 36 nM.

Compound `CC(CCc1ccccc1)Nc1c(F)c(Oc2cccc(C(=N)N)c2)nc(Oc2ccc(C(C)C)cc2C(=O)O)c1F` (stereo unspecified) showed a Concentration prolonging prothrombin time in assay [1] of 28 µM. For the same compound, the IC50 at Coagulation factor X is 4800 nM; in assay [2], 15 nM.

With `Cc1ccc(Oc2nc(Oc3cccc(C(=N)N)c3)c(F)c(NC(C)CCc3ccccc3)c2F)c(C(=O)O)c1` (stereo unspecified), the 50% inhibitory concentration (IC50) was determined as 29000 nM against Coagulation factor X and 20 nM in assay [2].

As for `CC(CCc1ccccc1)Nc1c(F)c(Oc2cccc(C(=N)N)c2)nc(Oc2ccc(C(=O)NC(CO)CO)cc2C(=O)O)c1F` (stereo unspecified), the Concentration prolonging prothrombin time in assay [1] was found to be 9 µM. Moreover, the IC50 at Coagulation factor X came out at 13000 nM; in assay [2] it was 46 nM.

`CC(CCc1ccccc1)Nc1c(F)c(Oc2cccc(C(=N)N)c2)nc(Oc2ccc(C(=O)NCCCCO)cc2C(=O)O)c1F` (stereo unspecified) showed a Concentration prolonging prothrombin time in assay [1] of 16 µM. Further, the results for the half-maximal inhibitory concentration (IC50) (at Coagulation factor X; in assay [2]) were 20000 nM and 67 nM, respectively.

As for `CC(CCc1ccccc1)Nc1c(F)c(Oc2cccc(C(=N)N)c2)nc(Oc2ccc(OC(C)C)cc2C(=O)O)c1F` (stereo unspecified), the Concentration prolonging prothrombin time in assay [1] turned out to be 52 µM. Besides, the IC50 against Coagulation factor X came out at 12000 nM; in assay [2], 17 nM.

As to `CC(CCc1ccccc1)Nc1c(F)c(Oc2cccc(C(=N)N)c2)nc(Oc2ccccc2C(=O)O)c1F` (stereo unspecified), in assay [1], the Concentration prolonging prothrombin time was found to be 35 µM. Also, the IC50 on Coagulation factor X turned out to be 55000 nM.

Consider `CC(CCc1ccccc1)Nc1c(F)c(Oc2cccc(C(=N)N)c2)nc(Oc2ccc(N(C)C)cc2C(=O)O)c1F` (stereo in doubt; 19) [listing 1 of 2 here], for which the values for the IC50 (on Coagulation factor X; in assay [2]) were 6800 nM and 13 nM, respectively.

As to `CC(CCc1ccccc1)Nc1c(F)c(Oc2cccc(C(=N)N)c2)nc(Oc2ccc(C(=O)N[C@H](O)C(=O)O)cc2C(=O)O)c1F` (stereo partly specified), in assay [2], the half-inhibitory concentration (IC50) amounted to 730 nM.

Take `C[C@H](CCc1ccccc1)Nc1c(F)c(Oc2cccc(C(=N)N)c2)nc(Oc2ccccc2C(=O)O)c1F`: in assay [1], the Concentration prolonging prothrombin time was 29 µM. The values for the IC50 (at Coagulation factor X; in assay [2]) were 51000 nM and 45 nM, respectively.

Compound `CC(CCc1ccccc1)Nc1c(F)c(Oc2cccc(C(=N)N)c2)nc(Oc2ccc(N(C)C)cc2C(=O)O)c1F` (stereo in doubt; 19) [listing 2 of 2 here] displayed a Concentration prolonging prothrombin time in assay [1] of 49 µM.

`CCN(CC)c1ccc(Oc2nc(Oc3cccc(C(=N)N)c3)c(F)c(NC(C)CCc3ccccc3)c2F)c(C(=O)O)c1` (stereo unspecified): the Concentration prolonging prothrombin time in assay [1] came to 83 µM. The IC50 stood at 9600 nM at Coagulation factor X and 16 nM in assay [2].

As for `CC(CCc1ccccc1)Nc1c(F)c(Oc2cccc(C(=N)N)c2)nc(Oc2ccc(C(=O)NCc3cccc(O)c3)cc2C(=O)O)c1F` (stereo unspecified), the Concentration prolonging prothrombin time in assay [1] came to 49 µM. Moreover, the IC50 against Coagulation factor X came to 4100 nM; in assay [2] it was 39 nM.

For `CCCOc1ccc(Oc2nc(Oc3cccc(C(=N)N)c3)c(F)c(NC(C)CCc3ccccc3)c2F)c(C(=O)O)c1` (stereo unspecified), in assay [1], the Concentration prolonging prothrombin time stood at 95 µM. For the same compound, the IC50 on Coagulation factor X was 26000 nM; in assay [2], 19 nM.

Consider `CC(CCc1ccccc1)Nc1c(F)c(Oc2cccc(C(=N)N)c2)nc(Oc2ccc(N)cc2C(=O)O)c1F` (stereo unspecified), for which the concentration for half-maximal inhibition (IC50) against Coagulation factor X stood at 11000 nM; in assay [2], 79 nM.

As to `COc1ccc(Oc2nc(Oc3cccc(C(=N)N)c3)c(F)c(NC(C)CCc3ccccc3)c2F)c(C(=O)O)c1` (stereo unspecified), the IC50 at Coagulation factor X amounted to 11000 nM; in assay [2] it was 39 nM.

As for `CC(CCc1ccccc1)Nc1c(F)c(Oc2cccc(C(=N)N)c2)nc(Oc2ccc(C(=O)O)cc2C(=O)O)c1F` (stereo unspecified), the IC50 in assay [2] stood at 200 nM.

Turning to `CC(CCc1ccccc1)Nc1c(F)c(Oc2cccc(C(=N)N)c2)nc(Oc2ccc(O)cc2C(=O)O)c1F` (stereo unspecified), the IC50 came to 11000 nM against Coagulation factor X and 560 nM in assay [2].

For `Cc1c(F)c(Oc2cccc(C(=N)N)c2)nc(Oc2ccc(N(C)C)cc2C(=O)O)c1F`, the IC50 in assay [2] is 190 nM.

`CC(CCc1ccccc1)Nc1c(F)c(Oc2cccc(C(=N)N)c2)nc(Oc2ccc(C(C)(C)C)cc2C(=O)O)c1F` (stereo unspecified): in assay [1], the Concentration prolonging prothrombin time amounted to 24 µM. The results for the IC50 (against Coagulation factor X; in assay [2]) were 3300 nM and 21 nM, respectively.

Turning to `Cc1c(F)c(Oc2cccc(C(=N)N)c2)nc(Oc2ccccc2C(=O)O)c1F`, the IC50 is below 10000 nM against Coagulation factor X and 1200 nM in assay [2].

In turn, `CCOc1ccc(Oc2nc(Oc3cccc(C(=N)N)c3)c(F)c(NC(C)CCc3ccccc3)c2F)c(C(=O)O)c1` (stereo unspecified) gave a Concentration prolonging prothrombin time in assay [1] of 94 µM. The IC50 against Coagulation factor X stood at 17000 nM; in assay [2] it was 29 nM.

In assay [1], `CC(CCc1ccccc1)Nc1c(F)c(Oc2cccc(C(=N)N)c2)nc(Oc2ccc(C(=O)NCCCO)cc2C(=O)O)c1F` (stereo unspecified) displayed a Concentration prolonging prothrombin time of 12 µM. The compound also returned an IC50 in assay [2] of 71 nM.

For `CC(CCc1ccccc1)Nc1c(F)c(Oc2cccc(C(=N)N)c2)nc(Oc2ccc(C(=O)NC(C)C(C)(C)C)cc2C(=O)O)c1F` (stereo unspecified), the Concentration prolonging prothrombin time in assay [1] amounted to 15 µM. The IC50 at Coagulation factor X came to 4300 nM; in assay [2], 14 nM.

As to `CCC(CO)NC(=O)c1ccc(Oc2nc(Oc3cccc(C(=N)N)c3)c(F)c(NC(C)CCc3ccccc3)c2F)c(C(=O)O)c1` (stereo unspecified), the Concentration prolonging prothrombin time in assay [1] came to 10 µM. For the same compound, the IC50 against Coagulation factor X was 5700 nM; in assay [2], 23 nM.

As for `CC(CCc1ccccc1)Nc1c(F)c(Oc2cccc(C(=N)N)c2)nc(Oc2ccc(N(C)C)cc2C(=O)O)c1F` (stereo in doubt; 28) [listing 1 of 2 here], the IC50 on Coagulation factor X amounted to 4500 nM; in assay [2], 15 nM.

Consider `CC(CCc1ccccc1)Nc1c(F)c(Oc2cccc(C(=N)N)c2)nc(Oc2ccc(N(C)C)cc2C(=O)O)c1F` (stereo in doubt; 28) [listing 2 of 2 here], for which, in assay [1], the Concentration prolonging prothrombin time turned out to be 16 µM.
